Laboratory results published in patent US10898473B2, “Combinations to treat cancer” (EVOL SCIENCE LLC, priority 2016, dated 2021).

What was measured:
BxPC3M1 cells = experiment: Colony formation assay; assay type: cell-based
Protocol: (§1) For colony formation assays, 400 cells per well were seeded into 24-well plates on day 0. Cells were treated with DMSO or gemcitabine at various doses on day 1 for 24 hours. Gemcitabine was washed out on day 2, vemurafenib, dabrafenib, and methotrexate was added. On day 4, drugs added on day 2 was washed out. Cells were allowed to grow for a subsequent 7 days before being fixed (10% methanol+10% acetic acid) and stained with crystal violet (0.4% in 20% ethanol) for quantitation as previously described (Bhattacharjee et al., 2014).

NCI-H2122 cells = experiment: Colony formation assay; assay type: cell-based
Protocol: as §1

SK-MEL-28 cells [1] = experiment: Colony formation assay; assay type: cell-based
Protocol: as §1

SK-MEL-28VR1 cells [2] = experiment: Colony formation assay; assay type: cell-based
Protocol: as §1

[3] = test system: pancreatic cancer patient-derived and ATCC established cell lines; experiment: 3D-spheroidal growth assay (CTG3D cell viability); assay type: cell-based; settings: gemcitabine day 2, washed out, B-raf inhibitor day 3, viability day 5; FIG. 15
Protocol: FIG. 15 illustrates gemcitabine sensitized pancreatic cancer patient-derived and ATCC established cell lines to vemurafenib or dabrafenib in 3D-spheroidal growth assays: 20,000 cells plated (Corning 4515 spheroid plates) on day 0, Gemcitabine added on day 2 (all spheroids at least 500 μm in diameter), gemcitabine washed out and B-raf inhibit was added on day 3, CTG3D cell viability assays on day 5 (n=2).
ATCC established cell lines to vemurafenib or dabrafenib in 3D-spheroidal growth assays. 20,000 cells were plated to grow in a 3D-spheroidal growth assays. (Corning 4515 spheroid plates). Two days later when all spheroids were at least 500 μm in diameter, gemcitabine was added 2 days after plating. Gemcitabine was washed out the following day and the B-raf inhibitor was added on day 3 (3 days post-plating). CTG3D cell viability assays were performed 5-days post plating (i.e, on day 5, n=2). […] This was a surprising and unexpected effect that these cells could be killed with this combination.

[4] = test system: BxPC3M1, BxPC3, Panc1, and MiaPaca2; experiment: Cell proliferation assay; assay type: cell-based; settings: vemurafenib 10 μM; all 4 cell lines (WT BRAF)
Protocol: FIGS. 9A-9H illustrate vemurafenib induced cell proliferation and serine synthesis in pancreatic cancer cell lines. FIG. 9A: Cell proliferation assay of BxPC3 cells treated with vemurafenib (10 μM). 100000 cells plated on day 0. FIG. 9B: Cell proliferation assay of BxPC3M1 cells treated with vemurafenib (10 μM). 100000 cells plated on day 0. FIG. 9C: Cell proliferation assay of Panc1 cells treated with vemurafenib (10 μM). 100000 cells plated on day 0. FIG. 9D: Cell proliferation assay of MiaPaca2 cells treated with vemurafenib (10 μM). 100000 cells plated on day 0. FIG. 9E: Mass spectrometry: PHGDH protein expression in pancreatic cancer cells treated with DMSO or vemurafenib (10 μM) (n=3). FIG. 9F: Mass spectrometry: PSAT1 protein expression in pancreatic cancer cells treated with DMSO or vemurafenib (10 μM) (n=3). FIG. 9G: Mass spectrometry: PSPH protein expression in pancreatic cancer cells treated with DMSO or vemurafenib (10 μM) (n=3). FIG. 9H: Mass spectrometry: SARS protein expression in pancreatic cancer cells treated with DMSO or vemurafenib (10 μM) (n=3).
Next, we tested the effect of vemurafenib treatment on pancreatic cancer cell proliferation. All 4 of the cell lines (BxPC3M1, BxPC3, Panc1, and MiaPaca2) tested express WT BRAF. […] As expected, PHGDH, PSAT1, PSPH, and SARS protein abundance increased in all 4 cell lines tested (FIGS. 9E, 9F, 9G, and 9H). […]

[5] = test system: BxPC3M1, BxPC3, Panc1, and MiaPaca2; assay type: cell-based, Homo sapiens; settings: vemurafenib 10 μM vs DMSO; all 4 cell lines
[6] = test system: PHGDH in SK-MEL-28VR1 cells; experiment: Western blot of PHGDH protein expression; assay type: cell-based; settings: following vemurafenib treatment; FIG. 5B
Protocol: Cells were harvested, washed in PBS and lysed in NP40 lysis buffer (1% NP40/PBS/10% glycerol) with protease and phosphatase inhibitors. Protein concentrations were determined with Total-Protein-Assay-kit (ITSI Biosciences; K-0014-20) and then SDS sample buffer was added to the lysates. 50 ug of boiled lysates was separated by SDS-PAGE and then transferred onto Immobilon P membranes (Millipore; IPVH00010).

[7] = test system: SK-MEL-28VR1 vs SK-MEL-28 cells; settings: protein abundance with vemurafenib treatment, SK-MEL-28VR1 compared to parental SK-MEL-28
SK-MEL-28VR1 cells [8] = experiment: Mass spectrometry protein abundance
Protocol: (§2) 5 μL of sample were loaded onto a C18 trap column (PepMap100; 300-μm i.d.×5 mm, 5-μm particle size, 100 Å; Thermo Fisher Scientific) at a flow rate of 10 μL min^−1. […] The runs were analyzed using Progenesis-QI for Proteomics (Nonlinear dynamics). The chromatograms were aligned and the MS/MS data was extracted for peptide identification using Mascot (Matrix Science, London, UK; version 2.5.1). Mascot was set up to search the cRAP database, the custom database including the QMC peptide sequence and SwissProt database (selected for Homo sapiens) assuming the digestion enzyme trypsin. Mascot was searched with a fragment ion mass tolerance of 0.06 Da and a parent ion tolerance of 15 PPM. Deamidated of asparagine and glutamine, oxidation of methionine, acetyl of lysine, propionyl of lysine and carbamidomethylation of cysteine were specified in Mascot as variable modifications. The peptides identified using a FDR<1% were extracted and imported back into Progenesis for assignment of the peaks. Only proteins with at least 2 unique peptides and a Mascot score of 20 were used for further analysis. The peptide and protein quantification used a synthetic control peptide for normalization across the samples.
(§3) All proteomic trend plots were constructed using the Evol Science Software suite (ESSv1.0). […]

SK-MEL-28 cells [9] = experiment: Mass spectrometry protein abundance
Protocol: as §2, §3

CC(C)(C)c1nc(-c2cccc(NS(=O)(=O)c3c(F)cccc3F)c2F)c(-c2ccnc(N)n2)s1 [dabrafenib, Dabrafenib]
sensitization to gemcitabine (BxPC3M1 cells; dabrafenib 1 μM + variable doses of gemcitabine, FIG. 11A): sensitized | sensitization to gemcitabine (NCI-H2122 cells; dabrafenib 1 μM + variable doses of gemcitabine, FIG. 11B): sensitized

Nc1ccn([C@@H]2O[C@H](CO)[C@@H](O)C2(F)F)c(=O)n1 [gemcitabine]
sensitization over single vemurafenib treatments (SK-MEL-28 cells [1]; gemcitabine 50 nM + variable doses of vemurafenib, FIG. 7A): did not sensitize | sensitization to vemurafenib (SK-MEL-28VR1 cells [2]; gemcitabine 50 nM + variable doses of vemurafenib, FIG. 7B): significantly sensitized | sensitization to dabrafenib (SK-MEL-28VR1 cells [2]; gemcitabine 50 nm + variable doses of dabrafenib, FIG. 11C): sensitized | effect of gemcitabine pre-treatment followed by B-raf inhibitors on the cells [3]: leads to cell death | sensitization to vemurafenib or dabrafenib [3]: sensitized

CN(Cc1cnc2nc(N)nc(N)c2n1)c1ccc(C(=O)N[C@@H](CCC(=O)O)C(=O)O)cc1 [methotrexate]
cell death compared to gemcitabine+vemurafenib without methotrexate (BxPC3M1 cells; methotrexate (75 nM) + gemcitabine + vemurafenib (1 μM), FIG. 10A): increased cell death | cell death compared to gemcitabine+vemurafenib without methotrexate (NCI-H2122 cells; methotrexate (75 nM) + gemcitabine + vemurafenib (1 μM), FIG. 10B): increased cell death | killing by methotrexate/vemurafenib treatments (SK-MEL-28 cells [1]; methotrexate 75 nM + differential doses of vemurafenib, FIG. 6C): no significant killing | killing of cells following vemurafenib treatment (SK-MEL-28VR1 cells [2]; methotrexate 75 nM + differential doses of vemurafenib, FIG. 6D): significantly enhanced | cell death alongside the gemcitabine/vemurafenib combination (SK-MEL-28VR1 cells [2]; methotrexate (75 nM) + gemcitabine (50 nM) + vemurafenib, FIG. 7F): significantly enhanced

CCCS(=O)(=O)Nc1ccc(F)c(C(=O)c2c[nH]c3ncc(-c4ccc(Cl)cc4)cc23)c1F [vemurafenib, Vemurafenib]
sensitization to gemcitabine (BxPC3M1 cells; variable gemcitabine doses + vemurafenib 1 μM, FIG. 8A): significantly sensitized | cell death (BxPC3M1 cells; vemurafenib 5 μM, serine depleted media (not with complete media), FIG. 10C): > 50% | sensitization to gemcitabine (NCI-H2122 cells; vemurafenib 1 μM, FIG. 8C): sensitized | cell death (SK-MEL-28VR1 cells [2]; vemurafenib 2.5 μM and 5 μM, serine depletion (not with complete media), FIG. 6E): > 50% | cell proliferation [4]: increased proliferation | PHGDH, PSAT1, PSPH, and SARS protein abundance [5]: increased | PHGDH levels [6]: increased | Fold differential, ASNS [7]: 8 fold | Fold differential, CYP51A1 [7]: 8 fold | Fold differential, DUS2 [7]: 7 fold | Fold differential, FAM129B [7]: 9 fold | Fold differential, KRT19 [7]: 5 fold | Fold differential, LARS2 [7]: 6 fold | Fold differential, MPHOSPH6 [7]: 9 fold | Fold differential, MRPL13 [7]: 2 fold | Fold differential, PDLIM7 [7]: 9 fold | Fold differential, PHGDH [7]: 2 fold | Fold differential, PPP1R7 [7]: 8 fold | Fold differential, PSAT1 [7]: 8 fold | Fold differential, PSPH [7]: 5 fold | Fold differential, RUVBL1 [7]: 3 fold | Fold differential, S100A11 [7]: 8 fold | Fold differential, SARS [7]: 6 fold | Fold differential, SARS2 [7]: 4 fold | Fold differential, SBDS [7]: 10 fold | Fold differential, SPATA20 [7]: 12 fold | Fold differential, TXNDC17 [7]: 2 fold | PHGDH, PSAT1, PSPH, SARS and SARS2 abundance (SK-MEL-28VR1 cells [8]; cells exposed to vemurafenib vs vehicle, data not shown): equal or higher abundances | Cytoplasmic FAM129B abundance increase (SK-MEL-28VR1 cells [8]; vemurafenib treatment compared to vehicle treatment, FIG. 5A): ~6 fold | FAM129B abundance (SK-MEL-28 cells [9]; in response to vemurafenib treatments, parental cells): decreased | PHGDH, PSAT1, PSPH, SARS and SARS2 abundance (SK-MEL-28 cells [9]; parental cells exposed to vemurafenib vs vehicle, data not shown): opposite trend
